In patent publication US8673950B2, “Dihydrooxazol-2-amine derivatives” (Hoffmann-LaRoche Inc., priority 2010, dated 2014):

Tests used:
rat TAAR1 = rat TAAR1 (Rattus norvegicus (Rat), UniProt Q923Y9); experiment: Radioligand binding assay on rat TAAR1; details: rat TAAR1, membranes of stably transfected HEK-293 cells; second value of cell mouse/rat
Experimental: (§1) Construction of TAAR Expression Plasmids and Stably Transfected Cell Lines
(§2) For the construction of expression plasmids the coding sequences of human, rat and mouse TAAR 1 were amplified from genomic DNA essentially as described by Lindemann et al.. The Expand High Fidelity PCR System (Roche Diagnostics) was used with 1.5 mM Mg^2+ and purified PCR products were cloned into pCR2.1-TOPO cloning vector (Invitrogen) following the instructions of the manufacturer. PCR products were subcloned into the pIRESneo2 vector (BD Clontech, Palo Alto, Calif.), and expression vectors were sequence verified before introduction in cell lines.
(§3) HEK293 cells (ATCC # CRL-1573) were cultured essentially as described by Lindemann et al. (2005). For the generation of stably transfected cell lines HEK293 cells were transfected with the pIRESneo2 expression plasmids containing the TAAR coding sequences (described above) with Lipofectamine 2000 (Invitrogen) according to the instructions of the manufacturer, and 24 hrs post transfection the culture medium was supplemented with 1 mg/ml G418 (Sigma, Buchs, Switzerland). After a culture period of about 10 d clones were isolated, expanded and tested for responsiveness to trace amines (all compounds purchased from Sigma) with the cAMP Biotrak Enzyme immunoassay (EIA) System (Amersham) following the non-acetylation EIA procedure provided by the manufacturer.
Radioligand Binding Assay on Rat TAAR1
(§4) Membrane Preparation and Radioligand Binding.
HEK-293 cells stably expressing rat TAAR1 were maintained at 37° C. and 5% CO2 in DMEM high glucose medium, containing fetal calf serum (10%, heat inactivated for 30 min at 56° C.), penicillin/streptomycin (1%), and 375 μg/ml geneticin (Gibco). Cells were released from culture flasks using trypsin/EDTA, harvested, washed twice with ice-cold PBS (without Ca^2+ and Mg^2+), pelleted at 1'000 rpm for 5 min at 4° C., frozen and stored at −80° C. Frozen pellets were suspended in 20 ml HEPES-NaOH (20 mM, pH 7.4) containing 10 mM EDTA and homogenized with a Polytron (PT 6000, Kinematica) at 14'000 rpm for 20 s. The homogenate was centrifuged at 48'000×g for 30 min at 4° C. Subsequently, the supernatant was removed and discarded, and the pellet resuspended in 20 ml HEPES-NaOH (20 mM, pH 7.4) containing 0.1 mM EDTA using the Polytron (20 s at 14'000 rpm). This procedure was repeated and the final pellet resuspended in HEPES-NaOH containing 0.1 mM EDTA and homogenized using the Polytron. Typically, aliquots of 2 ml membrane portions were stored at −80° C. With each new membrane batch the dissociation constant (Kd) was determined via a saturation curve. […] Nonspecific binding was defined as the amount of ^3[H]-(S)-4-[(ethyl-phenyl-amino)-methyl]-4,5-dihydro-oxazol-2-ylamine bound in the presence of 10 μM unlabeled ligand. All compounds were tested at a broad range of concentrations (10 pM to 10 μM) in duplicates. […] The 96 deep well plates were incubated for 1 hr at 4° C. Incubations were terminated by rapid filtration through Unifilter-96 plates (Packard Instrument Company) and glass filters GF/C (Perkin Elmer) presoaked for 1 hr in polyethylenimine (0.3%) and washed 3 times with 1 ml of cold binding buffer. After addition of 45 μl of Microscint 40 (PerkinElmer) the Unifilter-96 plate was sealed and after 1 hr the radioactivity counted using a TopCount Microplate Scintillation Counter (Packard Instrument Company).

mouse TAAR1 = mouse TAAR1 (Mus musculus (Mouse), UniProt Q923Y8); experiment: Radioligand binding assay on mouse TAAR1; details: mouse TAAR1, membranes of stably transfected HEK-293 cells; first value of cell mouse/rat
Experimental: as §1, §2, §3
Radioligand Binding Assay on Mouse TAAR1
as §4
HEK-293 cells stably expressing mouse TAAR1 were maintained at 37° C. and 5% CO2 in DMEM high glucose medium, containing fetal calf serum (10%, heat inactivated for 30 min at 56° C.), penicillin/streptomycin (1%), and 375 μg/ml geneticin (Gibco). Cells were released from culture flasks using trypsin/EDTA, harvested, washed twice with ice-cold PBS (without Ca^2+ and Mg^2+), pelleted at 1'000 rpm for 5 min at 4° C., frozen and stored at −80° C. Frozen pellets were suspended in 20 ml HEPES-NaOH (20 mM, pH 7.4) containing 10 mM EDTA and homogenized with a Polytron (PT 6000, Kinematica) at 14'000 rpm for 20 s. The homogenate was centrifuged at 48'000×g for 30 min at 4° C. Subsequently, the supernatant was removed and discarded, and the pellet resuspended in 20 ml HEPES-NaOH (20 mM, pH 7.4) containing 0.1 mM EDTA using the Polytron (20 s at 14'000 rpm). This procedure was repeated and the final pellet resuspended in HEPES-NaOH containing 0.1 mM EDTA and homogenized using the Polytron. Typically, aliquots of 2 ml membrane portions were stored at −80° C. With each new membrane batch the dissociation constant (Kd) was determined via a saturation curve. The TAAR1 radioligand ^3[H]-(S)-4-[(ethyl-phenyl-amino)-methyl]-4,5-dihydro-oxazol-2-ylamine (described in WO 2008/098857) was used at a concentration equal to the calculated Kd value, that was usually around 0.7 nM, resulting in the binding of approximately 0.5% of the radioligand and a specific binding representing approximately 70% of the total binding. Nonspecific binding was defined as the amount of ^3[H]-(S)-4-[(ethyl-phenyl-amino)-methyl]-4,5-dihydro-oxazol-2-ylamine bound in the presence of 10 μM unlabeled ligand. All compounds were tested at a broad range of concentrations ([…]) in duplicates. […] The 96 deep well plates were incubated for 1 hr at 4° C. Incubations were terminated by rapid filtration through Unifilter-96 plates (Packard Instrument Company) and glass filters GF/C (Perkin Elmer) presoaked for 1 hr in polyethylenimine (0.3%) and washed 3 times with 1 ml of cold binding buffer. After addition of 45 μl of Microscint 40 (PerkinElmer) the Unifilter-96 plate was sealed and after 1 hr the radioactivity counted using a TopCount Microplate Scintillation Counter (Packard Instrument Company).

Sequence of mouse TAAR1 (Q923Y8 whole entry): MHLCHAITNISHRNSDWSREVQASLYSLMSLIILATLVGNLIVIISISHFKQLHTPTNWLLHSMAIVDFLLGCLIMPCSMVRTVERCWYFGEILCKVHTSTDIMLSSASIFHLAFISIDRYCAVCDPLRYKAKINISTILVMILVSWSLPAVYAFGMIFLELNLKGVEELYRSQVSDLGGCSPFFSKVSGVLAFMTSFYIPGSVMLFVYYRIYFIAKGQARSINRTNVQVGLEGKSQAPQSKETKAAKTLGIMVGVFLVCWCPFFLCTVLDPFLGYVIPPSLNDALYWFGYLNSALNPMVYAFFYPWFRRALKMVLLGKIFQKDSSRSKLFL
Sequence of rat TAAR1 (Q923Y9 whole entry): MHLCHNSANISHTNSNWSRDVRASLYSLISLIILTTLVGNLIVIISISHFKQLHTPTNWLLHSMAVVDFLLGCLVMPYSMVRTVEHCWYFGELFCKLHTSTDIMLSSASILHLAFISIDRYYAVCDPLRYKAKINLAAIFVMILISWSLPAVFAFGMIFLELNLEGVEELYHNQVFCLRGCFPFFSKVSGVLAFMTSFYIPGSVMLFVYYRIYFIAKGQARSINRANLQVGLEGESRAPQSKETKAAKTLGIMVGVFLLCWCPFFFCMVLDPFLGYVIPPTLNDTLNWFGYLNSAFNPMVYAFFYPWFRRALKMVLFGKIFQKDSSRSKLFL

Row | SMILES | Ki (rat TAAR1) [µM] | Ki (mouse TAAR1) [µM]
1 | NC1=N[C@@H](CCc2ccc(Nc3cc(F)ccn3)cc2)CO1 [Example 22, {4-[2-((S)-2-Amino-4,5-dihydro-oxazol-4-yl)-ethyl]-phenyl}-(4-fluoro-pyridin-2-yl)-amine] | 0.0002 | 0.0034
2 | Cc1ccc(Nc2ccc(CC[C@H]3COC(N)=N3)cc2)cc1 [Example 14, (S)-4-(4-(p-Tolylamino)phenethyl)-4,5-dihydrooxazol-2-amine] | 0.0001 | 0.0008
3 | NC1=N[C@@H](CCc2ccc(Nc3ccc(Cl)cc3F)cc2)CO1 [Example 7, (S)-4-{2-[4-(4-Chloro-2-fluoro-phenylamino)-phenyl]-ethyl}-4,5-dihydro-oxazol-2-ylamine] | 0.0001 | 0.0017
4 | Cc1ccnc(Nc2ccc(CC[C@H]3COC(N)=N3)cc2)n1 [Example 48, {4-[2-((S)-2-Amino-4,5-dihydro-oxazol-4-yl)-ethyl]-phenyl}-(4-methyl-pyrimidin-2-yl)-amine] | 0.0012 | 0.0166
5 | CCc1cnc(Nc2ccc(CC[C@H]3COC(N)=N3)cc2)nc1 [Example 37, {4-[2-((S)-2-Amino-4,5-dihydro-oxazol-4-yl)-ethyl]-phenyl}-(5-ethyl-pyrimidin-2-yl)-amine] | 0.0012 | 0.0013
6 | NC1=N[C@@H](CCc2ccc(Nc3ccccc3)cc2)CO1 [Example 13, (S)-4-[2-(4-Phenylamino-phenyl)-ethyl]-4,5-dihydro-oxazol-2-ylamine] | 0.0001 | 0.0013
7 | Cc1nccc(Nc2ccc(CC[C@H]3COC(N)=N3)cc2)n1 [Example 34, {4-[2-((S)-2-Amino-4,5-dihydro-oxazol-4-yl)-ethyl]-phenyl}-(2-methyl-pyrimidin-4-yl)-amine] | 0.0026 | 0.0387
8 | C[C@@H]1OC(N)=N[C@H]1CCc1ccc(Nc2ncc(Cl)cn2)cc1 [Example 52, {4-[2-((4S,5S)-2-Amino-5-methyl-4,5-dihydro-oxazol-4-yl)-ethyl]-phenyl}-(5-chloro-pyrimidin-2-yl)-amine] | 0.0006 | 0.0046
9 | NC1=N[C@@H](CCc2ccc(N[C@H](c3ccc(Cl)cc3)C(F)(F)F)cc2)CO1 [Example 65, (−)-(S)-4-(4-((R)-1-(4-chlorophenyl)-2,2,2-trifluoroethylamino)phenethyl)-4,5-dihydrooxazol-2-amine] | 0.0032 | 0.0244
10 | COc1cccc(C(Nc2ccc(CC[C@H]3COC(N)=N3)cc2)C(F)(F)F)n1 (stereo partly drawn) [Example 70, (4S)-4-(4-(2,2,2-Trifluoro-1-(6-methoxypyridin-2-yl)ethylamino)phenethyl)-4,5-dihydrooxazol-2-amine] | 0.0205 | 0.134

Further lines, results first:

Row | Ki (rat TAAR1) [µM] | Ki (mouse TAAR1) [µM] | SMILES
11 | 0.0046 | 0.107 | Cc1cncc(Nc2ccc(CC[C@H]3COC(N)=N3)cc2)n1 [Example 43, {4-[2-((S)-2-Amino-4,5-dihydro-oxazol-4-yl)-ethyl]-phenyl}-(6-methyl-pyrazin-2-yl)-amine]
12 | 0.0006 | 0.0218 | NC1=N[C@@H](CCc2ccc(Nc3cnc(Cl)nc3)cc2)CO1 [Example 50, {4-[2-((S)-2-Amino-4,5-dihydro-oxazol-4-yl)-ethyl]-phenyl}-(2-chloro-pyrimidin-5-yl)-amine]
13 | 0.0006 | 0.0035 | NC1=N[C@@H](CCc2ccc(Nc3cccc4cccnc34)cc2)CO1 [Example 1, (S)-4-(4-(Quinolin-8-ylamino)phenethyl)-4,5-dihydrooxazol-2-amine]
14 | 0.004 | 0.0224 | NC1=N[C@@H](CCc2ccc(Nc3ncc(F)cn3)cc2)CO1 [Example 20, {4-[2-((S)-2-Amino-4,5-dihydro-oxazol-4-yl)-ethyl]-phenyl}-(5-fluoro-pyrimidin-2-yl)-amine]
15 | 0.0004 | 0.0006 | NC1=N[C@@H](CCc2ccc(Nc3ncc(Br)cn3)cc2)CO1 [Example 51, {4-[2-((S)-2-Amino-4,5-dihydro-oxazol-4-yl)-ethyl]-phenyl}-(5-bromo-pyrimidin-2-yl)-amine]
16 | 0.0001 | 0.0002 | NC1=N[C@@H](CCc2ccc(Nc3ccc(Cl)cc3)cc2)CO1 [Example 6, (S)-4-{2-[4-(4-Chloro-phenylamino)-phenyl]-ethyl}-4,5-dihydro-oxazol-2-ylamine]
17 | 0.0132 | 0.0623 | NC1=N[C@@H](CCc2ccc(NC(c3ccc(Br)cn3)C(F)(F)F)cc2)CO1 (stereo partly drawn) [Example 62, (S)-4-(2-{4-[1-(5-Bromo-pyridin-2-yl)-2,2,2-trifluoro-ethylamino]-phenyl}-ethyl)-4,5-dihydro-oxazol-2-ylamine]
18 | 0.0031 | 0.0593 | NC1=N[C@@H](CCc2ccc(Nc3nccnc3Cl)cc2)CO1 [Example 41, {4-[2-((S)-2-Amino-4,5-dihydro-oxazol-4-yl)-ethyl]-phenyl}-(3-chloro-pyrazin-2-yl)-amine]
19 | 0.0004 | 0.0003 | NC1=N[C@@H](CCc2ccc(Nc3ncc(C4CC4)cn3)cc2)CO1 [Example 54, {4-[2-((S)-2-Amino-4,5-dihydro-oxazol-4-yl)-ethyl]-phenyl}-(5-cyclopropyl-pyrimidin-2-yl)-amine]
20 | 0.0013 | 0.0182 | Cc1cc(Nc2ccc(CC[C@H]3COC(N)=N3)cc2)ncn1 [Example 24, {4-[2-((S)-2-Amino-4,5-dihydro-oxazol-4-yl)-ethyl]-phenyl}-(6-methyl-pyrimidin-4-yl)-amine]
21 | 0.0008 | 0.0007 | NC1=N[C@@H](CCc2ccc(Nc3cccc(C(F)(F)F)n3)cc2)CO1 [Example 26, {4-[2-((S)-2-Amino-4,5-dihydro-oxazol-4-yl)-ethyl-]-phenyl}-(6-trifluoromethyl-pyridin-2-yl)-amine]
22 | 0.0002 | 0.0003 | NC1=N[C@@H](CCc2ccc(Nc3ncc(C4CCC4)cn3)cc2)CO1 [Example 60, (S)-4-(4-(5-Cyclobutylpyrimidin-2-ylamino)phenethyl)-4,5-dihydrooxazol-2-amine]
23 | 0.104 | 0.48 | C[S+]([O-])c1cnc(Nc2ccc(CC[C@H]3COC(N)=N3)cc2)nc1 (stereo partly drawn) [Example 75, (4S)-4-(4-(5-(Methylsulfinyl)pyrimidin-2-ylamino)phenethyl)-4,5-dihydrooxazol-2-amine]
